Results on two molecules are retold here after PMC3731216, “Origin and Functional Diversification of an Amphibian Defense Peptide Arsenal” (PLoS Genetics, 2013).

Data set [1] has as its system Saccharomyces cerevisiae. The data set is described as follows: MIC assay in liquid medium (twofold dilutions) against S. cerevisiae. The format is cell-based. Conditions: lowest concentration in twofold dilutions with no growth; 5×10^5 CFU/ml, Luria-Bertani broth, 30°C, 18 hours, read by eye; duplicate or triplicate, min–max if variable. As for the experimental part:
(§1) Seventeen predicted and recovered peptides were de novo synthesized using solid-phase technology by CASLO Laboratory ApS (Lyngby, Denmark) and delivered as HPLC-purified (>95%) trifluoracetate (TFA) salts. The peptide salts were stored as 5.12 mM stock solutions in 0.01% (V/V) acetic acid/0.2% (m/V) BSA. Peptides were tested against Escherichia coli (ATCC 25922) and Pseudomonas aeruginosa (ATCC 15692), Staphylococcus aureus (ATCC 25923), Micrococcus luteus, Saccharomyces cerevisiae, a protozoan parasite (Trypanosoma brucei brucei), mouse (Mus musculus) red blood cells and mouse spleen tissue cultures (containing 50–60% B-cells, ∼25–30% T-cells, and 5% myeloid cells). All assays were performed in duplicate or triplicate.
(§2) Activity against the bacteria and fungus was measured by assessing the lowest peptide concentration in a series of twofold dilutions at which no growth was detected (known as the minimum inhibitory concentration, MIC). Bacterial and yeast cultures (5×10^5 colony forming units/ml) were prepared in Müller-Hinton (MH) broth and Luria-Bertani (LB) broth respectively and transferred to serial dilutions of peptides ranging from 512 or 256 µM down to 1 or 0.5 µM in 96-well polypropylene plates. After incubation at 37°C (bacteria) or 30°C (S. cerevisiae) for 18 hours, growth of the cultures was checked by eye. In addition to MIC, we determined minimum microbicidal concentrations (MMC) by inoculating samples of the MIC assays on agar plates lacking peptides and checking for overnight growth. In all cases, MIC and MMC were identical.

Data set [2] has as its system Escherichia coli (ATCC 25922). The data set is described as follows: MIC assay in liquid medium (twofold dilutions) against E. coli. Conditions: lowest concentration in twofold dilutions with no growth; 5×10^5 CFU/ml, Müller-Hinton broth, 37°C, 18 hours, read by eye; duplicate or triplicate, min–max if variable. In kind it is cell-based. As for the experimental part:
as §1, §2

The subject of data set [3] is Micrococcus luteus. The data set is described as follows: MIC assay in liquid medium (twofold dilutions) against M. luteus. The format is cell-based. The settings on record: lowest concentration in twofold dilutions with no growth; 5×10^5 CFU/ml, Müller-Hinton broth, 37°C, 18 hours, read by eye; duplicate or triplicate, min–max if variable. As for the experimental part: as §1, §2

Data set [4] deals with Trypanosoma brucei brucei AnTat1.1 bloodstream parasites. The data set is described as follows: Trypanolytic activity (LC95, 30 minutes). The format is cell-based. Conditions: lowest concentration killing at least 95% of parasites after 30 minutes; PSG buffer with 5% FCS, light microscope count; min–max of repeated tests. As for the experimental part: as §1
Activity against T. brucei parasites was assessed as the minimum concentration in a series of twofold dilutions required to kill 95% of parasites in 30 minutes (LC95). Frozen stabilates of Trypanosoma brucei brucei AnTat1.1 bloodstream parasites were expanded by infection of C57Black/6 mice (Janvier). Mice with systemic parasitaemia (typically 4–5 days post infection) were exsanguinated and parasites were purified from heparinized blood by DEAE-cellulose (DE52, Whatman) chromatography. Collected parasites were washed twice with Phosphate-Saline-Glucose buffer (PSG-buffer) and enumerated microscopically using a Bürker hematocytometer. The DEAE52-purified parasites (stock: 10^6 parasites/ml PSG buffer containing 5% FCS) were added to polypropylene 96-well plates containing the serial peptide dilutions to obtain total volumes of 200 µl. After incubation for 30 minutes, trypanolytic activity was assessed using a light microscope by calculating the percentage of dead parasites in a minimum of 200 counted cells.

Data set [5] in a line: Hydrophobicity as % TFA/AcN solvent at HPLC elution time. In kind it is physicochemical. Conditions: chromatographic; expressed as % TFA/AcN solvent at HPLC elution time.
The subject of data set [6] is Staphylococcus aureus (ATCC 25923). The data set is described as follows: MIC assay in liquid medium (twofold dilutions) against S. aureus. The format is cell-based. Conditions: lowest concentration in twofold dilutions with no growth; 5×10^5 CFU/ml, Müller-Hinton broth, 37°C, 18 hours, read by eye; duplicate or triplicate, min–max if variable. As for the experimental part:
as §1, §2

The subject of data set [7] is T-lymphocytes (naive C57Black/6 splenocytes). The data set is described as follows: Inhibition of Concanavalin A-induced T-cell proliferation in spleen cell cultures. The format is cell-based, Mus musculus. Conditions: lowest concentration causing at least 50% inhibition of Concanavalin A-induced T-cell proliferation; 2×10^5 splenocytes, 24 h + 18 h [3H]thymidine, 37°C; min–max if variable. As for the experimental part:
as §1
Activity against T-lymphocytes was assessed as the lowest peptide concentration in a series of twofold dilutions causing at least 50% inhibition of Concanavalin A-induced T-cell proliferation (IC50). Solutions containin 2×10^5 naive C57Black/6 splenocytes in the presence of 2.5 µg Concanavalin A were added to polypropylene 96-well plates containing the serial peptide dilutions to obtain total volumes of 100 µl. After incubation for 24 hours at 37°C in a humidified atmosphere, the cells were pulsed with [^3H]thymidine and incubated for an additional 18 hours. The amount of [^3H]thymidine incorporation was assessed by a β-counter as a measure of cell proliferation and the percentage of proliferation inhibition for each peptide concentration was calculated as 100×(1−(Tobs/T100%)), where Tobs is the [^3H]thymidine level measured for the peptide concentration, and T100% is the [^3H]thymidine level measured for Concanavalin-A-induced cell proliferation in the absence of peptide (representing 100% proliferation).

For data set [8], the system named is mouse red blood cells. The data set is described as follows: Hemolysis of mouse red blood cells (HC50). The format is cell-based. The settings on record: lowest concentration causing at least 50% hemolysis; mouse blood diluted 1/100 in RPMI, 37°C, 30 minutes, OD 550 nm; 100% = 1% Tween-20. The method, then: as §1
Activity against mouse red blood cells was examined by assessing the lowest peptide concentration in a series of twofold dilutions causing at least 50% hemolysis (HC50). Briefly, heparinized blood was obtained by cardiac puncture of mice euthanized via CO2. The blood was diluted 1/100 in RPMI and added to polypropylene 96-well plates containing the serial peptide dilutions to obtain total volumes of 100 µl. The plates were incubated at 37°C in a humidified atmosphere for 30 minutes and centrifuged at 1400 rpm for 2 minutes to pellet intact red blood cells allowing visual observation of hemolysis. Supernatants were subsequently transferred to 96-well flat-bottom plates to allow spectrophotometry using an ELISA reader (OD measured at 550 nm). The percentage of hemolyis for each peptide concentration was calculated as 100×(ODobs−OD0%)/(OD100%−OD0%), where ODobs is the OD measured for the peptide concentration, OD0% is the average OD in the absence of peptides (0% hemolysis), and OD100% is the average OD in the presence of 1% Tween-20 (100% hemolysis).

Data set [9] has as its system Pseudomonas aeruginosa (ATCC 15692). The data set is described as follows: MIC assay in liquid medium (twofold dilutions) against P. aeruginosa. Conditions: lowest concentration in twofold dilutions with no growth; 5×10^5 CFU/ml, Müller-Hinton broth, 37°C, 18 hours, read by eye; duplicate or triplicate, min–max if variable. The format is cell-based. The method, then:
as §1, §2

Values after ≈ are worked out from the molar mass of the structure shown. Where a SMILES comes first, the peptide text is derived from it. Some results are limits rather than exact numbers.

In general, IC50 refers to the concentration at which inhibition is half-maximal.

As for `CC[C@H](C)[C@H](NC(=O)[C@H](C)NC(=O)[C@H](CCCCN)NC(=O)[C@H](C)NC(=O)[C@H](C)NC(=O)[C@H](CCCCN)NC(=O)CNC(=O)[C@H](Cc1ccccc1)NC(=O)[C@H](C)NC(=O)[C@@H](NC(=O)CNC(=O)[C@H](C)NC(=O)[C@H](CCCCN)NC(=O)[C@@H](NC(=O)[C@H](C)NC(=O)[C@H](CCSC)NC(=O)CN)[C@@H](C)O)[C@@H](C)O)C(=O)N[C@H](C(=O)NCC(=O)N[C@@H](C)C(=O)N[C@@H](C)C(=O)N[C@@H](CC(C)C)C(N)=O)[C@@H](C)CC` [PGLa-St2] (H-GMATKAGTAFGKAAKAIIGAAL-NH2; N-terminus assumed), the “MIC S. cerevisiae” value in data set [1] amounted to 64 µM (≈ 129 µg/mL). Moreover, the “MIC E. coli” value in [2] turned out to be 16 µM (≈ 32.3 µg/mL). Further, the “MIC M. luteus” value in data set [3] was determined as 2 µM (≈ 4.04 µg/mL). Further, the “LC95 T. brucei” value in data set [4] was in the range of 16 to 32 µM. Also, the Hydrophobicity in data set [5] is 42,6 % TFA/AcN solvent. Further, the “MIC S. aureus” value in data set [6] was greater than 256 µM. Also, the IC50 in [7] was determined as 64 µM. For the same molecule, the “HC50 Erythrocytes” value in data set [8] is listed as greater than 256 µM. The “MIC P. aeruginosa” value in [9] was determined as 128 µM (≈ 258 µg/mL).
Regarding “KLGFENFLVKALKTVMHVPTSPLLa [CPF-St6, predicted S. tropicalis skin peptide encoded by cpf-St6]”, the “MIC S. cerevisiae” value in [1] is reported as 64 µM. Also, the “MIC E. coli” value in [2] is 16 µM. Further, in [3], the “MIC M. luteus” value came to 4 µM. For the same molecule, the “LC95 T. brucei” value in [4] is 16 to 256 µM. In [5], the Hydrophobicity is listed as 35,5 % TFA/AcN solvent. Moreover, in data set [6], the “MIC S. aureus” value is listed as greater than 256 µM. In addition, the concentration for half-maximal inhibition (IC50) in [7] was in the range of 32 to 64 µM. Further, the “HC50 Erythrocytes” value in [8] was determined as 256 µM. Moreover, the “MIC P. aeruginosa” value in data set [9] is given as greater than 256 µM.
